Source: PubChem BioAssay AID2060330 (Molecular Pharmacology Branch, DTP, NCI, 2025)
pIC50: −log10 of the molar value. Values joined by “and” are separate entries in the source; they are usually repeats but may differ in a detail not shown here. Equal entries are not always repeated.

Tested on: LG0703-F948-PDC spheroids with HUVEC/MSC, viability
Assay: Anticancer human tumor LG0703-F948-PDC patient-derived lung adenocarcinoma cell line growth inhibition [IpAb]
Conditions: for viability, T/C: stronger effect = lower value
How it was run: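 Multi-cell spheroids of 60% tumour cells, 25% HUVEC and 15% MSC in ultra-low-attachment U-bottom wells, treated with agents combined with ipatasertib or abemaciclib. Half-log ranges top out near clinical Cmax, or 10 microM when Cmax is unknown.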

[1] = curve of first compound, second compound 0.01 µM
[2] = curve of first compound, second compound 0.0316 µM
[3] = curve of first compound, second compound 0.1 µM
[4] = curve of first compound, second compound 0.316 µM
[5] = curve of first compound, second compound 1 µM
[6] = second compound 0.01 µM, first compound 0.0316 µM
[7] = second compound 0.01 µM, first compound 0.1 µM
[8] = second compound 0.0316 µM, first compound 0.0316 µM
[9] = second compound 0.0316 µM, first compound 0.1 µM
[10] = second compound 0.1 µM, first compound 0.0316 µM
[11] = second compound 0.1 µM, first compound 0.1 µM
[12] = second compound 0.316 µM, first compound 0.0316 µM
[13] = second compound 0.316 µM, first compound 0.1 µM
[14] = second compound 1 µM, first compound 0.0316 µM
[15] = second compound 1 µM, first compound 0.1 µM
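Note: spheroids exposed to compounds for seven days before readout.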
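Throughout, for viability, T/C: T/C percent relative to DMSO vehicle wells set as 100% viability.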

## CC(=O)c1c(C)c2cnc(Nc3ccc(N4CCNCC4)cn3)nc2n(C2CCCC2)c1=O + CCN1CCN(Cc2ccc(Nc3ncc(F)c(-c4cc(F)c5nc(C)n(C(C)C)c5c4)n3)nc2)CC1
[1]
  pIC50: < 6.52
[2]
  pIC50: < 6.52
[3]
  pIC50: < 6.52
[4]
  pIC50: < 6.52
[5]
  pIC50: < 6.52
Second compound 0.01 µM, first compound 0.000949 µM
  viability, T/C: 106%
Second compound 0.01 µM, first compound 0.003 µM
  viability, T/C: 102%
Second compound 0.01 µM, first compound 0.00949 µM
  viability, T/C: 92%
Second compound 0.01 µM, first compound 0.03 µM
  viability, T/C: 89.5%
Second compound 0.01 µM, first compound 0.0949 µM
  viability, T/C: 88.7%
Second compound 0.01 µM, first compound 0.3 µM
  viability, T/C: 83.9%
Second compound 0.0316 µM, first compound 0.000949 µM
  viability, T/C: 97.9%
Second compound 0.0316 µM, first compound 0.003 µM
  viability, T/C: 85.7%
Second compound 0.0316 µM, first compound 0.00949 µM
  viability, T/C: 84.5%
Second compound 0.0316 µM, first compound 0.03 µM
  viability, T/C: 97.8%
Second compound 0.0316 µM, first compound 0.0949 µM
  viability, T/C: 83.5%
Second compound 0.0316 µM, first compound 0.3 µM
  viability, T/C: 76.8%
Second compound 0.1 µM, first compound 0.000949 µM
  viability, T/C: 81.7%
Second compound 0.1 µM, first compound 0.003 µM
  viability, T/C: 77.7%
Second compound 0.1 µM, first compound 0.00949 µM
  viability, T/C: 71.6%
Second compound 0.1 µM, first compound 0.03 µM
  viability, T/C: 81.9%
Second compound 0.1 µM, first compound 0.0949 µM
  viability, T/C: 92.1%
Second compound 0.1 µM, first compound 0.3 µM
  viability, T/C: 70.5%
Second compound 0.316 µM, first compound 0.000949 µM
  viability, T/C: 89.1%
Second compound 0.316 µM, first compound 0.003 µM
  viability, T/C: 86.8%
Second compound 0.316 µM, first compound 0.00949 µM
  viability, T/C: 88%
Second compound 0.316 µM, first compound 0.03 µM
  viability, T/C: 90.9%
Second compound 0.316 µM, first compound 0.0949 µM
  viability, T/C: 84.7%
Second compound 0.316 µM, first compound 0.3 µM
  viability, T/C: 81.4%
Second compound 1 µM, first compound 0.000949 µM
  viability, T/C: 82.3%
Second compound 1 µM, first compound 0.003 µM
  viability, T/C: 77.3%
Second compound 1 µM, first compound 0.00949 µM
  viability, T/C: 54.4%
Second compound 1 µM, first compound 0.03 µM
  viability, T/C: 83%
Second compound 1 µM, first compound 0.0949 µM
  viability, T/C: 86.4%
Second compound 1 µM, first compound 0.3 µM
  viability, T/C: 79.7%

## Cc1nc(NC(=O)N2CCCC2C(N)=O)sc1-c1ccnc(C(C)(C)C(F)(F)F)c1 (configuration not stated) + CCN1CCN(Cc2ccc(Nc3ncc(F)c(-c4cc(F)c5nc(C)n(C(C)C)c5c4)n3)nc2)CC1
[1]
  pIC50: 5.83
[2]
  pIC50: 5.95
[3]
  pIC50: 6.17
[4]
  pIC50: 6.02
[5]
  pIC50: 6.38
[6]
  viability, T/C: 93.3%
[7]
  viability, T/C: 88.1%
Second compound 0.01 µM, first compound 0.316 µM
  viability, T/C: 81.3%
Second compound 0.01 µM, first compound 1 µM
  viability, T/C: 61.2%
Second compound 0.01 µM, first compound 3.16 µM
  viability, T/C: 28.8%
Second compound 0.01 µM, first compound 10 µM
  viability, T/C: 3.09%
[8]
  viability, T/C: 95.3%
[9]
  viability, T/C: 78.9%
Second compound 0.0316 µM, first compound 0.316 µM
  viability, T/C: 64.9%
Second compound 0.0316 µM, first compound 1 µM
  viability, T/C: 60.9%
Second compound 0.0316 µM, first compound 3.16 µM
  viability, T/C: 25.5%
Second compound 0.0316 µM, first compound 10 µM
  viability, T/C: 2.8%
[10]
  viability, T/C: 83.6%
[11]
  viability, T/C: 83.2%
Second compound 0.1 µM, first compound 0.316 µM
  viability, T/C: 49.9%
Second compound 0.1 µM, first compound 1 µM
  viability, T/C: 46.4%
Second compound 0.1 µM, first compound 3.16 µM
  viability, T/C: 33%
Second compound 0.1 µM, first compound 10 µM
  viability, T/C: 3.21%
[12]
  viability, T/C: 81.9%
[13]
  viability, T/C: 79.3%
Second compound 0.316 µM, first compound 0.316 µM
  viability, T/C: 60.9%
Second compound 0.316 µM, first compound 1 µM
  viability, T/C: 50.8%
Second compound 0.316 µM, first compound 3.16 µM
  viability, T/C: 30.6%
Second compound 0.316 µM, first compound 10 µM
  viability, T/C: 9.55%
[14]
  viability, T/C: 75.8%
[15]
  viability, T/C: 65.5%
Second compound 1 µM, first compound 0.316 µM
  viability, T/C: 40.8%
Second compound 1 µM, first compound 1 µM
  viability, T/C: 50%
Second compound 1 µM, first compound 3.16 µM
  viability, T/C: 32.6%
Second compound 1 µM, first compound 10 µM
  viability, T/C: 12.4%

## Cn1ncnc1[C@H]1c2n[nH]c(=O)c3cc(F)cc(c23)N[C@@H]1c1ccc(F)cc1 + CCN1CCN(Cc2ccc(Nc3ncc(F)c(-c4cc(F)c5nc(C)n(C(C)C)c5c4)n3)nc2)CC1
[1]
  pIC50: < 7.00
[2]
  pIC50: < 7.00
[3]
  pIC50: < 7.00
[4]
  pIC50: < 7.00
[5]
  pIC50: < 7.00
Second compound 0.01 µM, first compound 0.000316 µM
  viability, T/C: 104%
Second compound 0.01 µM, first compound 0.001 µM
  viability, T/C: 98%
Second compound 0.01 µM, first compound 0.00316 µM
  viability, T/C: 99.2%
Second compound 0.01 µM, first compound 0.01 µM
  viability, T/C: 97.3%
[6]
  viability, T/C: 91.2%
[7]
  viability, T/C: 88.8%
Second compound 0.0316 µM, first compound 0.000316 µM
  viability, T/C: 94%
Second compound 0.0316 µM, first compound 0.001 µM
  viability, T/C: 91.4%
Second compound 0.0316 µM, first compound 0.00316 µM
  viability, T/C: 79.9%
Second compound 0.0316 µM, first compound 0.01 µM
  viability, T/C: 86.1%
[8]
  viability, T/C: 92.6%
[9]
  viability, T/C: 83.4%
Second compound 0.1 µM, first compound 0.000316 µM
  viability, T/C: 79.5%
Second compound 0.1 µM, first compound 0.001 µM
  viability, T/C: 88.8%
Second compound 0.1 µM, first compound 0.00316 µM
  viability, T/C: 73%
Second compound 0.1 µM, first compound 0.01 µM
  viability, T/C: 75.2%
[10]
  viability, T/C: 74.4%
[11]
  viability, T/C: 84.3%
Second compound 0.316 µM, first compound 0.000316 µM
  viability, T/C: 85.6%
Second compound 0.316 µM, first compound 0.001 µM
  viability, T/C: 80.6%
Second compound 0.316 µM, first compound 0.00316 µM
  viability, T/C: 67.7%
Second compound 0.316 µM, first compound 0.01 µM
  viability, T/C: 86.8%
[12]
  viability, T/C: 84.1%
[13]
  viability, T/C: 76.7%
Second compound 1 µM, first compound 0.000316 µM
  viability, T/C: 82.2%
Second compound 1 µM, first compound 0.001 µM
  viability, T/C: 72.7%
Second compound 1 µM, first compound 0.00316 µM
  viability, T/C: 43.4%
Second compound 1 µM, first compound 0.01 µM
  viability, T/C: 68.9%
[14]
  viability, T/C: 74.4%
[15]
  viability, T/C: 80.2%

## CC1(C)CCC(CN2CCN(c3ccc(C(=O)NS(=O)(=O)c4ccc(NCC5CCOCC5)c([N+](=O)[O-])c4)c(Oc4cnc5[nH]ccc5c4)c3)CC2)=C(c2ccc(Cl)cc2)C1
Compound 0.0316 µM
  viability, T/C: 107% and 100%
Compound 0.1 µM
  viability, T/C: 106% and 101%
Compound 0.316 µM
  viability, T/C: 105% and 90.3%
Compound 1 µM
  viability, T/C: 101% and 95.1%
Compound 3.16 µM
  viability, T/C: 69.9% and 84.5%
Compound 10 µM
  viability, T/C: 14.1% and 13.4%
Curve of compound
  pIC50: 5.32 and 5.26
